1 compound from patent publication US20170168056A1, “METHODS AND COMPOSITIONS FOR DETECTING AND MODULATING CANCER CELLS” (Massachusetts Institute of Technology, priority 2015, published 2017) can be followed below.

For experiment [1], the system named is T47D cells. The experiment can be described thus: Cell viability of T47D cells expressing ShCtrl or ShMENA after paclitaxel. Format: cell-based, human. As to conditions: T47D ShMENA vs ShCtrl, 72 hours. Here is the method:
Cell Culture. MDA-MB-231 cells were purchased directly from the ATCC in June 2012, where cell lines are authenticated by short tandem repeat profiling. These cells were not reauthenticated by our lab and were cultured in DMEM with 10% FBS (Hyclone). Cell line generation and FACS were performed as previously described (32). […] SUM159 cells were obtained from Joan Brugge's lab at Harvard Medical School (January 2011) and were not reauthenticated in our lab. SUM159 cells were cultured according to the ATCC protocols. T47D cells were purchased at ATCC, where cell lines are authenticated by short tandem repeat profiling. They were cultured according to the manufacturer's protocol, and not reauthenticated in our lab. […]
MENA and MENA^INV are associated with increased survival during paclitaxel treatment in vitro. […] MENA and MENA^INV were determined to be widely expressed in all main breast cancer subtypes, as measured by mRNA from TCGA samples, as well as at the protein level by immunohistochemistry (FIGS. 28A, 28B, 28C), with slightly higher expression in patients with Her2+ breast cancer. […] Under the conditions we used, MENA11a co-migrates with the 80 kDa MENA, thus the intensity of the measured the 80 kDa MENA, detected with an antibody known to recognize all MENA isoforms, represents the total amount of 80 kDa MENA plus MENA11a in the cell lines that express both isoforms. […]

In experiment [2] the test system is Mena. The experiment can be described thus: Mena expression in cultured cells after taxane treatment (Western blot, FACS of GFP). In kind it is cell-based, human. Here is the method:
Taxol treatment induces increased Mena protein expression in vitro and in vivo. As high level of Mena or Mena^INV expression correlated with low response to Taxo, we hypothesized that Taxol treatment might affect Mena expression. […]. After 72 h of treatment with the drug, the expression level of Mena was 70% higher than in vehicle-treated cells.
Western blot. Cells were lysed in 25 mM Tris, 150 mM NaCl, 10% glycerol, 1% NP 40 and […] EDTA with a protease Mini-complete protease inhibitors (Roche) and a phosphatase inhibitor cocktail (PhosSTOP, Roche) at 4° C. for 20 minutes. Protein lysates were separated by SDS-PAGE, transferred to a nitrocellulose membrane and blocked with Odyssey Blocking Buffer (LiCor). Membranes were incubated with primary antibody overnight at 4° C. and Licor secondary antibodies at room temperature for 1 hour. Protein level intensity was measured with Image J.
Paclitaxel treatment selects for high MENA expression in vitro and in vivo. The Examples so far indicate that increased MENA or MENA^INV expression levels are associated with reduced responses to paclitaxel. The effect of paclitaxel treatment on levels of MENA expression in cell populations in vitro and in vivo was examined. First, endogenous MENA expression by Western Blot in 5 breast cancer cell lines that were exposed to 100 nM of paclitaxel or a vehicle control were analyzed (FIG. 33A).

As to `CC(=O)O[C@H]1C(=O)[C@@]2(C)[C@H]([C@H](OC(=O)c3ccccc3)[C@]3(O)C[C@H](OC(=O)[C@H](O)[C@@H](NC(=O)c4ccccc4)c4ccccc4)C(C)=C1C3(C)C)[C@]1(OC(C)=O)CO[C@@H]1C[C@@H]2O` [paclitaxel], in experiment [1], the “sensitivity to paclitaxel after reducing all MENA isoform levels” value is reported as “more sensitive to paclitaxel”. For the same compound, in experiment [2] (5 breast cancer cell lines, 100 nM paclitaxel, 72 hours, vs vehicle), the “endogenous MENA expression by Western Blot” value was “some cell lines (MDA-MB-231 and MDA-MB-175VII) showed increased MENA expression”. Also, the “FACS analysis of GFP expression levels after taxane treatment” value in experiment [2] (MDA-MB-231 populations expressing GFP, GFP-MENA or GFP-MENA^INV) is reported as “selected for high-Mena^INV-GFP expressing cells”. Moreover, in experiment [2] (after 72 h of treatment), the “expression level of Mena higher than in vehicle-treated cells” value is recorded as 70%.
